Experimental data reported in US20250243190A1, “NEW DEUTERATED RORGAMMA/RORGAMMAT INVERSE AGONISTS” (IMMUNIC AG, priority 2022, published 2025).

Assays:
[1] = molecular target: T1, RORγt (Homo sapiens, UniProt P51449); assay: Indigo Biosciences Human RAR-related Orphan Receptor, Gamma Reporter Assay (in vitro inhibition of RORγt); type: cell-based; details: RORγt reporter cells, luciferase readout, 22-24 h incubation; read-out: IC50 range
T1 sequence (P51449 269-508 limits assumed): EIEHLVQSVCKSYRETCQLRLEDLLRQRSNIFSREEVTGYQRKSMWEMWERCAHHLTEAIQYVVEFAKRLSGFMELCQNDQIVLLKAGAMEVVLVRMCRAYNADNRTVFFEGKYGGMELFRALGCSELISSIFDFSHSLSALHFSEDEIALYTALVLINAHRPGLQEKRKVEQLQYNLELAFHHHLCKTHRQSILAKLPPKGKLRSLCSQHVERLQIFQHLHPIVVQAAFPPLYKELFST
Experimental: The in vitro inhibition of RORγt was measured using Indigo Biosciences Human RAR-related Orphan Receptor, Gamma Reporter Assay System (Product #IB304001-32) as described in the technical manual. In brief, 200 μL of Reporter Cells is dispensed into wells of the assay plate and preincubated for 4-6 h. Following the pre-incubation period, culture media are discarded and 200 µL/well of the prepared 1×-concentration treatment media are added. Following 22-24 h incubation, treatment media are discarded and Luciferase Detection Reagent is added. The intensity of light emission (in units of ‘Relative Light Units’; RLU) from each assay well is quantified using a plate-reading luminometer. Average values of RLU were determined for each treatment concentration. Non-linear regression analyses were performed and IC50 values determined using GraphPad Prism software. Provided inverse-agonists ursolic acid served as positive control.

[2] = test system: SARS-CoV-2; assay: Antiviral activity on SARS-CoV-2, viral replication (YFP) assay; type: cell-based; details: Severe acute respiratory syndrome coronavirus 2, read-out: EC50 range
Description: (§1) The assay for viral replication (YFP) and the cell viability assay has been described in general in Pathogens 2021; 10:1076 and applied to compounds of the present invention furnished the following results: […]

[3] = Cell viability assay accompanying the SARS-CoV-2 assay; type: cell-based; details: cell viability assay of the SARS-CoV-2 test
Description: as §1

[4] = Mouse pharmacokinetics, oral or intravenous cassette dosing; type: in vivo, mice (C57BL/6J); details: C57BL/6J, whole blood, 3 female mice, 5 mg/kg oral cassette, sampling 0.25-8 h
Experimental: The pharmacokinetics of the compounds of the present invention was evaluated in 3 male and 3 female mice (C57BL/6J, 8 week old) after oral or intravenous cassette dosing to assess the oral bioavailability. Dose was 5 mg/kg (oral) and 1 mg/kg (intravenous), application volume was 5 mL/kg (oral) and 0.5 mL/kg (intravenous), vehicle was 5% solutol, 95% NaCl solution (at 0.9% saline concentration) for oral and 5% solutol, 5% Ethanol, 90% NaCl solution (at 0.9% saline concentration) for intravenous. At each designated time point (0.25, 0.5, 1, 2, 4, 8 and 24 h after dosing), 20 μL whole blood were collected from the tail vein into Li-heparin tubes, frozen on dry ice within 1-2 minutes of sampling and stored at −20° C. until processed for LC-MS analysis. The obtained data is as follows:
(§2) The pharmacokinetics of additional compounds of the present invention was evaluated in 3 female mice (C57BL/6J, 8 week old) after oral cassette dosing. Dose was 5 mg/kg, application volume was 5 mL/kg, vehicle was 5% solutol, 95% NaCl solution (at 0.9% saline concentration). At each designated time point (0.5, 1, 2, 4, 8 and 24 h after dosing), 20 μL whole blood were collected from the tail vein into Li-heparin tubes, frozen on dry ice within 1-2 minutes of sampling and stored at −20° C. until processed for LC-MS analysis. The obtained data is as follows:
as §2, with “(0.25, 0.5,” for “(0.5,”, “4 and” for “4,”, “8” for “8 and 24”, “analysis.” for “analysis. The obtained data is as follows:”

SMILES	IC50 [1]	also measured
[2H]C([2H])(CC(C)(C)O)n1ncc(-c2onc(-c3c(F)cccc3Cl)c2C(=O)OC)c1C(F)(F)F [Example 7, Methyl 3-(2-chloro-6-fluorophenyl)-5-(1-(3-hydroxy-3-methylbutyl-1,1-d2)-5-(tri-fluoromethyl)-1H-pyrazol-4-yl)isoxazole-4-carboxylate]	10 to 100 nM	EC50 [2]: < 100 nM; CC50 [3]: 20000 nM
[2H]C([2H])(OC(C)C)c1c(-c2c(F)cc(F)cc2Cl)noc1-c1cnn(-c2cccc(Cl)c2)c1C(F)(F)F [111/2]	100 to 1000 nM	
[2H]C([2H])([2H])OC(=O)c1c(-c2c(F)cccc2Cl)noc1-c1cnn(C([2H])([2H])CC(C)(C)O)c1C(F)(F)F [Example 7/2, Methyl-d3 3-(2-chloro-6-fluorophenyl)-5-(1-(3-hydroxy-3-methylbutyl-1,1-d2)-5-(tri-fluoromethyl)-1H-pyrazol-4-yl)isoxazole-4-carboxylate]	10 to 100 nM	EC50 [2]: < 100 nM; CC50 [3]: 63000 nM
[2H]C([2H])([2H])OC([2H])([2H])c1c(-c2c(F)cccc2Cl)noc1-c1cnn(-c2cccc(Cl)c2)c1C(F)(F)F [Example 110, 3-(2-Chloro-6-fluorophenyl)-5-(1-(3-chlorophenyl)-5-(trifluoromethyl)-1H-pyrazol-4-yl)-4-((methoxy-d3)methyl-d2)isoxazole]	< 10 nM	EC50 [2]: < 100 nM; CC50 [3]: > 100000 nM
[2H]C([2H])(OC1CC1)c1c(-c2c(F)cc(F)cc2Cl)noc1-c1cnn(-c2cccc(Cl)c2)c1C(F)(F)F [Example 111/1]	100 to 1000 nM	
[2H]C([2H])(CC(C)(C)O)n1ncc(-c2onc(-c3c(F)cc(OCCN4CCOCC4)cc3Cl)c2-c2ncccn2)c1C(F)(F)F [Example 6, 4-(4-(3-(2-Chloro-6-fluoro-4-(2-morpholinoethoxy)phenyl)-4-(pyrimidin-2-yl)isoxazol-5-yl)-5-(trifluoromethyl)-1H-pyrazol-1-yl)-2-methylbutan-4,4-d2-2-ol]	100 to 1000 nM	EC50 [2]: 100 to 1000 nM; CC50 [3]: 27000 nM
[2H][C@]1(n2ncc(-c3onc(-c4c(F)cccc4Cl)c3-c3ncccn3)c2C(F)F)C[C@](C)(O)C1 [Example 4-1/1]	100 to 1000 nM	
[2H]c1c([2H])c(F)c(-c2noc(-c3cnn(-c4cccc(Cl)c4)c3C(F)(F)F)c2C(=O)OC)c(Cl)c1[2H] [Example 104, Methyl 3-(2-chloro-6-fluorophenyl-3,4,5-d3)-5-(1-(3-chlorophenyl)-5-(trifluoro-methyl)-1H-pyrazol-4-yl)isoxazole-4-carboxylate]	10 to 100 nM	
[2H]C([2H])(CC(C)(C)O)n1ncc(-c2onc(-c3c(F)cccc3Cl)c2-c2ncccn2)c1C(F)F [Example 4, 4-(4-(3-(2-Chloro-6-fluorophenyl)-4-(pyrimidin-2-yl)isoxazol-5-yl)-5-(difluoromethyl)-1H-pyrazol-1-yl)-2-methylbutan-4,4-d2-2-ol]	10 to 100 nM	EC50 [2]: < 100 nM; CC50 [3]: > 100000 nM
[2H]C([2H])(OC1COC1)c1c(-c2c(F)cccc2Cl)noc1-c1cnn(-c2cccc(Cl)c2)c1C(F)(F)F [110/2]	10 to 100 nM	
[2H][C@]1(n2ncc(-c3onc(-c4c(F)cccc4Cl)c3-c3ncccn3)c2C(F)F)C[C@@](C)(O)C1 [4-2/1]	10 to 100 nM	
[2H]c1nc(-c2c(-c3c(F)cccc3Cl)noc2-c2cnn(-c3cccc(Cl)c3)c2C(F)(F)F)nc([2H])c1[2H] [Example 103, 3-(2-Chloro-6-fluorophenyl)-5-(1-(3-chlorophenyl)-5-(trifluoromethyl)-1H-pyrazol-4-yl)-4-(pyrimidin-2-yl-d3)isoxazole]	10 to 100 nM	
[2H]c1cc([2H])c(-n2ncc(-c3onc(-c4c(F)cccc4Cl)c3-c3nccs3)c2C(F)(F)F)c([2H])c1Cl [Example 106, 3-(2-Chloro-6-fluorophenyl)-5-(1-(3-chlorophenyl-2,4,6-d3)-5-(trifluoromethyl)-1H-pyrazol-4-yl)-4-(thiazol-2-yl)isoxazole]	< 10 nM	
[2H]C([2H])(OC(C)C)c1c(-c2c(F)cccc2Cl)noc1-c1cnn(-c2cc(F)cc(Cl)c2)c1C(F)(F)F [111/4]	10 to 100 nM	
[2H]c1nc(-c2c(-c3c(F)cccc3Cl)noc2-c2cnn(C([2H])([2H])CC(C)(C)O)c2C(F)(F)F)sc1[2H] [Example 3-2]	< 10 nM	
[2H]c1nc(-c2c(-c3c(F)cccc3Cl)noc2-c2cnn(-c3cccc(Cl)c3)c2C(F)(F)F)sc1[2H] [Example 107, 3-(2-Chloro-6-fluorophenyl)-5-(1-(3-chlorophenyl)-5-(trifluoromethyl)-1H-pyrazol-4-yl)-4-(thiazol-2-yl-d2)isoxazole]	10 to 100 nM	half-life [4]: 1.6 h; AUC(0-t) ([4]; read-out: AUC0-8 h): 871 ng·h/mL
[2H][C@]1(n2ncc(-c3onc(-c4ccccc4Cl)c3-c3ncccn3)c2C(F)(F)F)C[C@@](C)(O)C1 [2-2/1]	10 to 100 nM	
[2H][C@]1(n2ncc(-c3onc(-c4c(F)cccc4Cl)c3-c3ncccn3)c2C(F)(F)F)C[C@@](C)(O)C1 [Example 2-2, (1s,3s)-3-(4-(3-(2-chloro-6-fluorophenyl)-4-(pyrimidin-2-yl)isoxazol-5-yl)-5-(trifluoromethyl)-1H-pyrazol-1-yl)-1-methylcyclobutan-3-d-1-ol]	10 to 100 nM	
[2H]C([2H])(OC(F)(F)F)c1c(-c2c(F)cccc2Cl)noc1-c1cnn(-c2cccc(Cl)c2)c1C(F)(F)F [Example 109, 3-(2-Chloro-6-fluorophenyl)-5-(1-(3-chlorophenyl)-5-(trifluoromethyl)-1H-pyrazol-4-yl)-4-((trifluoromethoxy)methyl-d2)isoxazole]	10 to 100 nM	
[2H]C([2H])(OC1CC1)c1c(-c2c(F)cccc2Cl)noc1-c1cnn(-c2cc(F)cc(Cl)c2)c1C(F)(F)F [111/3]	10 to 100 nM	
[2H]C([2H])(OCC)c1c(-c2c(F)cccc2Cl)noc1-c1cnn(-c2cccc(Cl)c2)c1C(F)(F)F [110/3]	10 to 100 nM	
[2H]c1cc([2H])c(-n2ncc(-c3onc(-c4c(F)cccc4Cl)c3C(=O)OC)c2C(F)(F)F)c([2H])c1Cl [Example 105, Methyl 3-(2-chloro-6-fluorophenyl)-5-(1-(3-chlorophenyl-2,4,6-d3)-5-(trifluoro-methyl)-1H-pyrazol-4-yl)isoxazole-4-carboxylate]	< 10 nM	
[2H][C@]1(n2ncc(-c3onc(-c4c(F)cccc4Cl)c3-c3ncccn3)c2C(F)(F)F)C[C@](C)(O)C1 [Example 2-1, (1r,3r)-3-(4-(3-(2-Chloro-6-fluorophenyl)-4-(pyrimidin-2-yl)isoxazol-5-yl)-5-(trifluoro-methyl)-1H-pyrazol-1-yl)-1-methylcyclobutan-3-d-1-ol]	100 to 1000 nM	
[2H]c1c([2H])c(F)c(-c2noc(-c3cnn(C([2H])([2H])CC(C)(C)O)c3C(F)(F)F)c2-c2ncccn2)c(Cl)c1[2H] [5/2]	< 10 nM	
[2H]C([2H])([2H])C([2H])([2H])OC(=O)c1c(-c2c(F)cccc2Cl)noc1-c1cnn(-c2cccc(Cl)c2)c1C(F)(F)F [Example 100/1]	< 10 nM	
[2H][C@]1(n2ncc(-c3onc(-c4ccccc4Cl)c3-c3ncccn3)c2C(F)(F)F)C[C@](C)(O)C1 [Example 2-1/1]	100 to 1000 nM	
[2H]c1nc(-c2c(-c3c(F)cccc3Cl)noc2-c2cnn(C([2H])([2H])CC(C)(C)O)c2C(F)(F)F)nc([2H])c1[2H] [Example 3-3]	10 to 100 nM	
